Source: ChEMBL document CHEMBL1131738, “Rational design of N-[2-(2,5-dimethoxyphenylethyl)]-N'-[2-(5-bromopyridyl)]-thiourea (HI-236) as a potent non-nucleoside inhibitor of drug-resistant human immunodeficiency virus” (Bioorg Med Chem Lett, 1999)

Tests used:
[1] = Inhibitory activity of compound on p24 production in peripheral blood mononuclear cells infected with HIV strain A17.; format: functional; conditions: Homo sapiens
[2] = Inhibitory activity of compound on p24 production in peripheral blood mononuclear cells infected with HIV strain A17 variant.; format: functional; conditions: Homo sapiens
[3] = biological target: Human immunodeficiency virus type 1 reverse transcriptase (Human immunodeficiency virus 1, UniProt Q72547); test: Inhibition of purified recombinant HIV-1 reverse transcriptase
[4] = Inhibitory activity of compound on p24 production in peripheral blood mononuclear cells infected with HIV strain RT-MDR.; format: functional; conditions: Homo sapiens
[5] = Inhibitory activity of compound on p24 production in peripheral blood mononuclear cells infected with HIV strain HTLV IIIB wild type.; format: functional; conditions: Homo sapiens
[6] = Inhibitory activity of compound won p24 production in peripheral blood mononuclear cells infected with HIV strain HTLV IIIB wild type.; format: functional; conditions: Homo sapiens

| IC50 [3] [nM] | Structure (SMILES) | IC50 [1] [nM] | IC50 [2] [nM] | IC50 [4] [nM] | IC50 [5] [nM] | IC50 [6] [nM] |
| --- | --- | --- | --- | --- | --- | --- |
| 6400 | Fc1ccc(CCNC(=S)Nc2ccc(Br)cn2)cc1 |  |  |  |  |  |
| 3700 | S=C(NCCC1=CCCCC1)Nc1ccc(Cl)cn1 |  |  |  | 3 |  |
| 700 | Fc1cccc(CCNC(=S)Nc2ccc(Br)cn2)c1 |  |  | 20 | < 1 |  |
| 700 | S=C(NCCc1ccccc1Cl)Nc1ccc(Br)cn1 |  |  | 4 | < 10 |  |
|  | CC(C)Nc1cccnc1N1CCN(C(=O)c2cc3cc(NS(C)(=O)=O)ccc3[nH]2)CC1 [DELAVIRDINE] | 50000 | > 100000 | 400 | 9 |  |
|  | Cc1ccnc2c1NC(=O)c1cccnc1N2C1CC1 [NEVIRAPINE] | > 100000 | > 100000 | 5000 |  | 34 |
|  | S=C(NCCc1ccccn1)Nc1ccc(Br)cn1 [TROVIRDINE] |  |  | 20 | 7 |  |
|  | Cc1cn([C@H]2C[C@H](N=[N+]=[N-])[C@@H](CO)O2)c(=O)[nH]c1=O [ZIDOVUDINE] | 6 | 4 | 150 | 4 |  |

| Structure (SMILES) | IC50 [3] [nM] | IC50 [1] [nM] | IC50 [2] [nM] | IC50 [4] [nM] | IC50 [5] [nM] | IC50 [6] [nM] |
| --- | --- | --- | --- | --- | --- | --- |
| COc1ccc(OC)c(CCNC(=S)Nc2ccc(Br)cn2)c1 | 100 | 100 | 11000 | 5 | < 1 |  |
| Fc1ccccc1CCNC(=S)Nc1ccc(Br)cn1 | 600 | 200 | 41000 | 5 | < 10 |  |
| CCOCn1c(Cc2ccccc2)c(C(C)C)c(=O)[nH]c1=O [EMIVIRINE] | 800 |  |  | 300 |  |  |
